According to ChEMBL document CHEMBL1201862, “PubChem BioAssay data set” (2004):
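Five compound concentrations were applied to cells in 96-well plates for 48 hours; endpoints were derived by simple linear interpolation of the resulting dose-response curve. GI50 is the concentration that inhibits growth by half.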 Activity calls are given as the source filed them. Cut-off read from the data, not from the text of the source: active = GI50 up to about 1.1 µM and inactive = higher.

Tests used:
Assay in all cases: growth of human tumour cells (NCI), 48 h
786-0 = test system: 786-0
A549 = test system: A549
CAKI-1 = test system: CAKI-1
CCRF-CEM = test system: CCRF-CEM
EKVX = test system: EKVX
HOP-18 = test system: HOP-18
HOP-92 = test system: HOP-92
HT-29 = test system: HT-29
KM12 = test system: KM12
M14 = test system: M14
NCI-H522 = test system: NCI-H522
OVCAR-8 = test system: OVCAR-8
RPMI-8226 = test system: RPMI-8226
SK-MEL-28 = test system: SK-MEL-28
SK-MEL-5 = test system: SK-MEL-5
SW-620 = test system: SW-620
UACC-62 = test system: UACC-62

Measured: GI50

CCCCN(CC)C(=O)C(=O)C1C(=O)Nc2ccccc2[S+]1[O-] (stereo unspecified)
inactive: 786-0 > 100 µM | A549 > 100 µM | CAKI-1 > 100 µM | CCRF-CEM > 100 µM | EKVX 55.6 µM | HOP-18 > 100 µM | HOP-92 > 100 µM | HT-29 > 100 µM | KM12 > 100 µM | M14 > 100 µM | NCI-H522 > 100 µM | OVCAR-8 > 100 µM | RPMI-8226 > 100 µM | SK-MEL-28 > 100 µM | SK-MEL-5 > 100 µM | SW-620 > 100 µM | UACC-62 > 100 µM

COc1ccc(S(=O)(=O)N(CC(=O)O)c2ccccc2)cc1
inactive: 786-0 > 100 µM | A549 > 100 µM | CAKI-1 > 100 µM | CCRF-CEM > 100 µM | EKVX > 100 µM | HOP-18 > 100 µM | HOP-92 > 100 µM | HT-29 > 100 µM | KM12 > 100 µM | M14 > 100 µM | NCI-H522 > 100 µM | OVCAR-8 > 100 µM | RPMI-8226 > 100 µM | SK-MEL-28 > 100 µM | SK-MEL-5 > 100 µM | SW-620 > 100 µM | UACC-62 > 100 µM

CCCCNC(=O)NNC(=O)c1cc(/C=C/c2cccc([N+](=O)[O-])c2)ncn1
inactive: 786-0 > 100 µM | A549 > 100 µM | CAKI-1 > 100 µM | CCRF-CEM > 100 µM | EKVX > 100 µM | HOP-18 > 100 µM | HOP-92 > 100 µM | HT-29 > 100 µM | KM12 > 100 µM | M14 > 100 µM | NCI-H522 > 100 µM | OVCAR-8 > 100 µM | RPMI-8226 25.4 µM | SK-MEL-28 > 100 µM | SK-MEL-5 > 100 µM | SW-620 16.7 µM | UACC-62 > 100 µM

CC(C)(C)C1CCC(=O)C(C(O)CC2CC(=O)N(c3ccccc3)C(=O)C2)C1 (stereo unspecified)
inactive: 786-0 > 100 µM | A549 > 100 µM | CAKI-1 > 100 µM | CCRF-CEM 53.1 µM | EKVX > 100 µM | HOP-18 > 100 µM | HOP-92 > 100 µM | HT-29 > 100 µM | KM12 > 100 µM | M14 > 100 µM | NCI-H522 50.4 µM | OVCAR-8 > 100 µM | RPMI-8226 73.1 µM | SK-MEL-28 > 100 µM | SW-620 > 100 µM | UACC-62 > 100 µM

COc1cc2ccc3c4cc(OC)c(OC)cc4c[n+](C)c3c2cc1O
inactive: 786-0 > 100 µM | A549 > 100 µM | CAKI-1 > 100 µM | CCRF-CEM > 100 µM | EKVX > 100 µM | HOP-18 > 100 µM | HOP-92 > 100 µM | HT-29 > 100 µM | KM12 > 100 µM | M14 > 100 µM | NCI-H522 8.97 µM | OVCAR-8 32.3 µM | RPMI-8226 > 100 µM | SK-MEL-28 > 100 µM | SK-MEL-5 > 100 µM | SW-620 > 100 µM | UACC-62 > 100 µM

CCOC(=O)C(=O)Nc1cccc(Cl)c1C
inactive: 786-0 > 100 µM | A549 > 100 µM | CAKI-1 > 100 µM | CCRF-CEM > 100 µM | EKVX > 100 µM | HOP-18 > 100 µM | HOP-92 > 100 µM | HT-29 > 100 µM | KM12 > 100 µM | M14 > 100 µM | NCI-H522 > 100 µM | OVCAR-8 > 100 µM | RPMI-8226 > 100 µM | SK-MEL-28 > 100 µM | SK-MEL-5 > 100 µM | SW-620 > 100 µM | UACC-62 > 100 µM
